Experimental data taken from patent US8410150B2, “Inhibitors of carnitine palmitoyltransferase and treating cancer” (University Health Network, priority 2007, dated 2013).
Read-outs that look alike come from different tables or passages of the source.

Columns and labels:
A172 = test: Cell growth inhibition, SRB assay; format: cell-based, human; settings: Homo sapiens
Protocol: (§1) Human cancer cells (MCF-7, H358, H460, HCT116 p53^+/+, HCT116 p53^−/−, A172, PC-3, DU-145 and SW626) were maintained in DMEM medium containing 10% Fetal Bovine Serum (FBS) (Invitrogen, Burlington, ON, Canada) and normal cells HMEC, 184A1, NHBE and PrEC were cultured in MEGM, MEGM plus transferring and cholera toxin, BEGM and PrEGM supplemented with various growth factors (Cambrex, Charles city, IA, USA), respectively.
(§2) Compounds were dissolved in DMSO and further diluted in cell culture medium for the experiments performed. Cells were seeded into 96-well plates with 1,500-5,000 cells/well according to cell growth rate. After 24 h, DMEM medium containing 10% FBS were changed to DMEM containing 3% FBS for cancer cells and additional 3% FBS were added into the culture medium for normal cells. The compound was added into the cell culture at the indicated concentrations, and the final concentration of DMSO was adjusted to a final concentration of 0.1%. Cells were subjected to either normoxic condition (20% O2) for 6 days or hypoxic condition (0.2% O2) for 2 days and then transferred to normoxic condition for 4 days. Cell viability was assessed by Sulforhodamine B (SRB) assay at Day 6.
(§3) Sulforhodamine B (SRB) (Sigma, Oakville, ON, Canada) is a water-soluble dye that binds to the basic amino acids of the cellular proteins. Thus, colorimetric measurement of the bound dye provides an estimate of the total protein mass that is related to the cell number. The cells were fixed in situ by gently aspirating off the culture media and adding 50 ul of cold 10% trichloroacetic Acid (TCA) per well and incubated at 4° C. for 30-60 min. The plates were washed five times with water and allowed to air dry for 5 min. 50 ul of 0.4% (w/v) SRB dissolved in 1% (v/v) acetic acid were added into each well, plates were then incubated at RT for 30 min for staining, washed four times with 1% acetic acid to remove any unbound dye and then allowed to air dry for 5 min. Stain was solubilized with 100 ul of 10 mM Tris pH 10.5 per well. Absorbance was read at 570 nm on a spectrophotometer. GI50 (compound concentration required for 50% of growth inhibition) was calculated using GraphPad Prism 4.0 software (GraphPad Software, Inc., San Diego, Calif., USA).
(§4) Cell viability of various cell lines treated with 3-carboxy-N,N,N-trimethyl-2-pentadecanamidopropan-1-aminium (“nPAC”) and compound of Examples S7, S63, S66, S90, S89, S67, S75 and S10 was also assessed in a manner as described above in Example 5.

H358 = test: Cell growth inhibition, SRB assay; format: cell-based, human; settings: Homo sapiens
Protocol: as §1, §2, §3, §4

MCF-7 = test: Cell growth inhibition, SRB assay; format: cell-based, human; settings: Homo sapiens
Protocol: as §1, §2, §3, §4

PC-3 = test: Cell growth inhibition, SRB assay; format: cell-based, human; settings: Homo sapiens
Protocol: as §1, §2, §3, §4

SW626 = test: Cell growth inhibition, SRB assay; format: cell-based, human; settings: Homo sapiens
Protocol: as §1, §2, §3, §4

A54 = test: Cell growth inhibition, SRB assay; format: cell-based, human; settings: Homo sapiens; Lung A54, 3% FBS
Protocol: as §2, §3, §4

COLO-205 = test: Cell growth inhibition, SRB assay; format: cell-based, human; settings: Homo sapiens; Colon COLO-205, 3% FBS
Protocol: as §2, §3, §4

Caov-3 = test: Cell growth inhibition, SRB assay; format: cell-based, human; settings: Homo sapiens; Ovarian Caov-3, 3% FBS
Protocol: as §2, §3, §4

HCT-15 = test: Cell growth inhibition, SRB assay; format: cell-based, human; settings: Homo sapiens; Colon HCT-15, 3% FBS
Protocol: as §2, §3, §4

Hs578T = test: Cell growth inhibition, SRB assay; format: cell-based, human; settings: Homo sapiens, Hs-578T; Breast Hs578T, 3% FBS
Protocol: as §2, §3, §4

SW480 = test: Cell growth inhibition, SRB assay; format: cell-based, human; settings: Homo sapiens; Colon SW480, 3% FBS
Protocol: as §2, §3, §4

SW620 = test: Cell growth inhibition, SRB assay; format: cell-based, human; settings: Homo sapiens, SW-620; Colon SW620, 3% FBS
Protocol: as §2, §3, §4

MDA-231 = test: Cell growth inhibition, SRB assay; format: cell-based, human; settings: Homo sapiens, MDA-MB-231; Breast MDA-231, 3% FBS
Protocol: as §2, §3, §4

DU-145 = test: Cell growth inhibition, SRB assay; format: cell-based; settings: Homo sapiens, mean±SD of 2 experiments (FIG. 2)
Protocol: as §1, §2, §3

H460 = test: Cell growth inhibition, SRB assay; format: cell-based; settings: Homo sapiens
Protocol: as §1, §2, §3

HCT116 p53+/+ = test: Cell growth inhibition, SRB assay; format: cell-based; settings: Homo sapiens, HCT-116, mean±SD of 2 experiments (FIG. 2)
Protocol: as §1, §2, §3

HCT116 p53−/− = test: Cell growth inhibition, SRB assay; format: cell-based; settings: Homo sapiens, HCT-116, mean±SD of 2 experiments (FIG. 2)
Protocol: as §1, §2, §3

HCT116 = test: Cell growth inhibition, SRB assay, normoxia and hypoxia; format: cell-based; settings: Homo sapiens
Protocol: as §1, §2
(§5) Sulforhodamine B (SRB) (Sigma, Oakville, ON, Canada) is a water-soluble dye that binds to the basic amino acids of the cellular proteins. […] Absorbance was read at 570 nm on a spectrophotometer. […]

[1] = test system: normal cells, including human mammary epithelial cell line 184A1 and human primary epithelial cells HMEC (mammary); NHBE (lung) and PrEC (prostate); test: Growth of normal cells, SRB assay; format: cell-based; settings: 184A1, HMEC, SRB assay (FIG. 2B)
Protocol: as §1, §2, §5

[2] = A 172, Brain A172, 3% FBS, read-out: GI50
[3] = NCI-H358, Lung H358, 3% FBS, read-out: GI50
[4] = MCF7, Breast MCF-7, 3% FBS, read-out: GI50
[5] = Prostate PC-3, 3% FBS, read-out: GI50
[6] = Ovarian SW626, 3% FBS, read-out: GI50
[7] = NCI-H358, 144 h, treated 6 days, SRB assay, mean±SD of 2 experiments (FIG. 1, 2), read-out: GI50 for H358
[8] = MCF7, 144 h, treated 6 days, SRB assay, mean±SD of 2 experiments (FIG. 1, 2), read-out: GI50 for MCF-7

SMILES	GI50 (A172; [2])	GI50 (H358; [3])	GI50 (MCF-7; [4])	GI50 (PC-3; [5])	GI50 (SW626; [6])	GI50 (A54)	GI50 (COLO-205)	GI50 (Caov-3)	GI50 (HCT-15)	GI50 (Hs578T)	GI50 (SW480)	GI50 (SW620)	GI50 (MDA-231)	further results
CCCCCCCCCCCCCCc1ccc(NS(=O)(=O)N[C@H](CC(=O)O)C[N+](C)(C)C)cc1 [Example S90, (R)-3-(N-(4-tetradecylphenyl)sulfamoylamino)-4-(trimethylammonio)-butanoate]	6600 nM	1100 nM	4000 nM	1300 nM	3100 nM	21000 nM	2400 nM	1600 nM	3300 nM	8200 nM	1300 nM	2400 nM	–	–
CCCCCCCCCCOc1cccc(C(=O)N[C@H](CC(=O)[O-])C[N+](C)(C)C)c1 [Example S67, (R)-3-(3-(decyloxy)benzamido)-4-(trimethylammonio)butanoate]	3600 nM	700 nM	700 nM	1500 nM	2700 nM	88000 nM	2700 nM	800 nM	14000 nM	17000 nM	700 nM	5500 nM	–	–
CCCCCCCOc1ccc(NC(=O)N[C@H](CC(=O)[O-])C[N+](C)(C)C)cc1 [Example S10, (R)-3-(3-(4-(heptyloxy)phenyl)ureido)-4-(trimethylammonio)butanoate]	40000 nM	3400 nM	44000 nM	5300 nM	15000 nM	> 50000 nM	4600 nM	13000 nM	28000 nM	> 50000 nM	9300 nM	19000 nM	> 50000 nM	GI50 (H358; [7]): 4100 ± 1300 nM; GI50 (MCF-7; [8]): 1000 ± 100 nM
CCCCCCCCCCc1ccc(C(=O)N[C@H](CC(=O)[O-])C[N+](C)(C)C)cc1 [Example S66, (R)-3-(4-decylbenzamido)-4-(trimethylammonio)butanoate]	1800 nM	400 nM	100 nM	300 nM	1500 nM	28000 nM	400 nM	–	1100 nM	8200 nM	300 nM	600 nM	9400 nM	–
CCCCCCCCCCOc1ccc(C(=O)N[C@H](CC(=O)O)C[N+](C)(C)C)cc1 [Example S63, (R)-3-(4-(decyloxy)benzamido)-4-(trimethylammonio)butanoate 2,2,2-trifluoroacetate]	900 nM	400 nM	400 nM	300 nM	1200 nM	14000 nM	300 nM	–	500 nM	3700 nM	400 nM	500 nM	8500 nM	–
CCCCCCCCCCCCc1ccc(NS(=O)(=O)N[C@H](CC(=O)O)C[N+](C)(C)C)cc1 [Example S89, (R)-3-(N-(4-dodecylphenyl)sulfamoylamino)-4-(trimethylammonio)-butanoate]	4100 nM	1400 nM	4200 nM	1600 nM	2300 nM	21000 nM	1400 nM	1500 nM	2200 nM	7300 nM	1500 nM	1900 nM	–	–
CCCCCCCCc1ccc(NC(=O)N[C@H](CC(=O)[O-])C[N+](C)(C)C)cc1 [Example S7, (R)-3-(3-(4-octylphenyl)ureido)-4-(trimethylammonio)butanoate]	3000 nM	500 nM	4500 nM	700 nM	800 nM	25000 nM	900 nM	1300 nM	1300 nM	33000 nM	800 nM	1500 nM	27000 nM	GI50 (A172; A 172, 144 h, A172, normoxic condition (20% O2) for 6 days, read-out: GI50 Normoxi): 3800 ± 500 nM; GI50 (A172; A 172, A172, hypoxic condition (0.2% O2) for 2 days, then normoxic for 4 days, read-out: GI50 Hypoxia): 1900 ± 800 nM; GI50 (A172; A 172, SRB assay, mean±SD of 2 experiments (FIG. 2), read-out: GI50 for A172): 3800 ± 500 nM; GI50 (H358; [7]): 1000 ± 300 nM; GI50 (MCF-7; MCF7, 144 h, MCF-7, normoxic condition (20% O2) for 6 days, read-out: GI50 Normoxi): 5300 ± 1300 nM; GI50 (MCF-7; [8]): 5000 ± 1300 nM; GI50 (MCF-7; MCF7, MCF-7, hypoxic condition (0.2% O2) for 2 days, then normoxic for 4 days, read-out: GI50 Hypoxia): 2500 ± 600 nM; GI50 (PC-3; PC-3, SRB assay, mean±SD of 2 experiments (FIG. 2), read-out: GI50 for PC-3): 800 ± 300 nM; GI50 (SW626; SW626, SRB assay, mean±SD of 2 experiments (FIG. 2), read-out: GI50 for SW626): 800 ± 700 nM; GI50 (DU-145): 24000 ± 2800 nM; GI50 (H460; NCI-H460, 144 h, H460, normoxic condition (20% O2) for 6 days, read-out: GI50 Normoxi): 8800 ± 1200 nM; GI50 (H460; NCI-H460, H460, hypoxic condition (0.2% O2) for 2 days, then normoxic for 4 days, read-out: GI50 Hypoxia): 2600 ± 600 nM; GI50 (H460; NCI-H460, SRB assay, mean±SD of 2 experiments (FIG. 2), read-out: GI50 for H460): 8800 ± 2000 nM; GI50 (HCT116 p53+/+): 9300 ± 1700 nM; GI50 (HCT116 p53−/−): 13000 ± 800 nM; GI50 (HCT116; HCT-116, 144 h, normoxic condition (20% O2) for 6 days, read-out: GI50 Normoxi): 9300 ± 700 nM; GI50 (HCT116; HCT-116, hypoxic condition (0.2% O2) for 2 days, then normoxic for 4 days, read-out: GI50 Hypoxia): 5700 ± 600 nM; growth inhibition of normal cells [1]: inhibits growth of cancer cells but not normal cells
CCCCCCCCCCc1ccc(S(=O)(=O)N[C@H](CC(=O)O)C[N+](C)(C)C)cc1 [Example S75, (R)-3-carboxy-2-(4-decylphenylsulfonamido)-N,N,N-trimethylpropan-1-aminium 2,2,2-trifluoroacetate]	18000 nM	2800 nM	11000 nM	1500 nM	4100 nM	31000 nM	3600 nM	–	5600 nM	13000 nM	1900 nM	4100 nM	–	–
